Experimental data taken from the NIST ThermoML archive (doi:10.1021/je700260f).

Settings: Liquid, Vibrating tube method

FC(C(F)(F)F)C(F)(F)F [1,1,1,2,3,3,3-heptafluoropropane]
Settings | mass density [kg/m3]
303.15 K, 31383 kPa | 1520.3
303.15 K, 31415 kPa | 1520.5
303.15 K, 31442 kPa | 1520.5
303.15 K, 31478 kPa | 1520.6
303.15 K, 31506 kPa | 1520.8
303.15 K, 31538 kPa | 1520.8
303.15 K, 31570 kPa | 1521.1
303.15 K, 31607 kPa | 1521.1
303.15 K, 31634 kPa | 1521.1
303.15 K, 31671 kPa | 1521.3
303.15 K, 31699 kPa | 1521.4
303.15 K, 31745 kPa | 1521.4
303.15 K, 31773 kPa | 1521.7
303.15 K, 31806 kPa | 1521.7
303.15 K, 31839 kPa | 1521.9
303.15 K, 31871 kPa | 1521.8
303.15 K, 31914 kPa | 1522
303.15 K, 33938 kPa | 1528.3
303.15 K, 33968 kPa | 1528.3
303.15 K, 34013 kPa | 1528.4
303.15 K, 34044 kPa | 1528.6
303.15 K, 34091 kPa | 1528.8
303.16 K, 1756 kPa | 1377.1
303.16 K, 1773 kPa | 1377.2
303.16 K, 1841 kPa | 1377.8
303.16 K, 2155 kPa | 1380.4
303.16 K, 2175 kPa | 1380.5
303.16 K, 2196 kPa | 1380.8
303.16 K, 2220 kPa | 1380.9
303.16 K, 2238 kPa | 1381
303.16 K, 2262 kPa | 1381.2
303.16 K, 2781 kPa | 1385.3
303.16 K, 2809 kPa | 1385.5
303.16 K, 2833 kPa | 1385.7
303.16 K, 2855 kPa | 1385.8
303.16 K, 2874 kPa | 1386.1
303.16 K, 2903 kPa | 1386.2
303.16 K, 2923 kPa | 1386.5
303.16 K, 2945 kPa | 1386.6
303.16 K, 2970 kPa | 1386.7
303.16 K, 3045 kPa | 1387.3
303.16 K, 3161 kPa | 1388.3
303.16 K, 3180 kPa | 1388.4
303.16 K, 3245 kPa | 1388.9
303.16 K, 3334 kPa | 1389.4
303.16 K, 4314 kPa | 1396.7
303.16 K, 4345 kPa | 1396.9
303.16 K, 4366 kPa | 1397.2
303.16 K, 4395 kPa | 1397.2
303.16 K, 4845 kPa | 1400.4
303.16 K, 9092 kPa | 1427.1
303.16 K, 9131 kPa | 1427.4
303.16 K, 9158 kPa | 1427.5
303.16 K, 9192 kPa | 1427.6
303.16 K, 9223 kPa | 1427.9
303.16 K, 20848 kPa | 1482.9
303.16 K, 20912 kPa | 1483.1
303.16 K, 20941 kPa | 1483.3
303.16 K, 20974 kPa | 1483.4
303.16 K, 21003 kPa | 1483.6
313.14 K, 2256 kPa | 1337.4
313.14 K, 2281 kPa | 1337.6
313.14 K, 2307 kPa | 1337.9
313.14 K, 2329 kPa | 1337.9
313.14 K, 2362 kPa | 1338.4
313.14 K, 2381 kPa | 1338.6
313.14 K, 2406 kPa | 1338.8
313.14 K, 2431 kPa | 1339.2
313.14 K, 2463 kPa | 1339.5
313.14 K, 2485 kPa | 1339.7
313.14 K, 2518 kPa | 1339.8
313.14 K, 2546 kPa | 1340.2
313.14 K, 2571 kPa | 1340.5
313.14 K, 2596 kPa | 1340.7
313.14 K, 2621 kPa | 1340.9
313.14 K, 2650 kPa | 1341.2
313.14 K, 2671 kPa | 1341.5
313.14 K, 3117 kPa | 1345.6
313.14 K, 3144 kPa | 1345.9
313.14 K, 3170 kPa | 1346
313.14 K, 3193 kPa | 1346.3
313.14 K, 3223 kPa | 1346.7
313.14 K, 3247 kPa | 1346.8
313.14 K, 3275 kPa | 1347
313.14 K, 4237 kPa | 1355.5
313.14 K, 4266 kPa | 1355.8
313.14 K, 4299 kPa | 1356.1
313.14 K, 4328 kPa | 1356.3
313.14 K, 4487 kPa | 1357.8
313.14 K, 4509 kPa | 1358
313.14 K, 4539 kPa | 1358.2
313.14 K, 4561 kPa | 1358.3
313.14 K, 4590 kPa | 1358.4
313.14 K, 4614 kPa | 1358.7
313.14 K, 4639 kPa | 1359
313.14 K, 4660 kPa | 1359.2
313.14 K, 4688 kPa | 1359.4
313.14 K, 4710 kPa | 1359.5
313.14 K, 5002 kPa | 1362.2
313.14 K, 6187 kPa | 1371.4
313.14 K, 6210 kPa | 1371.5
313.14 K, 6240 kPa | 1371.6
313.14 K, 6264 kPa | 1371.8
313.14 K, 6295 kPa | 1372.2
313.14 K, 6319 kPa | 1372.4
313.14 K, 6347 kPa | 1372.4
313.14 K, 6379 kPa | 1372.7
313.14 K, 8595 kPa | 1388.5
313.14 K, 12590 kPa | 1413.1
313.14 K, 13048 kPa | 1415.8
313.14 K, 13083 kPa | 1416
313.14 K, 14273 kPa | 1422.5
313.14 K, 14312 kPa | 1422.7
313.14 K, 14342 kPa | 1422.9
313.14 K, 18535 kPa | 1443.8
313.14 K, 18569 kPa | 1443.9
313.14 K, 18598 kPa | 1444.1
313.14 K, 18633 kPa | 1444.1
313.14 K, 18662 kPa | 1444.3
313.14 K, 25516 kPa | 1473.5
313.14 K, 25569 kPa | 1473.8
313.14 K, 25615 kPa | 1473.9
313.14 K, 25663 kPa | 1474
313.14 K, 25698 kPa | 1474.2
313.14 K, 25734 kPa | 1474.4
313.14 K, 25776 kPa | 1474.5
313.14 K, 25819 kPa | 1474.7
313.14 K, 25862 kPa | 1474.7
313.14 K, 25905 kPa | 1475
313.14 K, 25953 kPa | 1475.3
313.14 K, 25993 kPa | 1475.3
313.14 K, 26035 kPa | 1475.5
313.14 K, 26070 kPa | 1475.7
313.14 K, 26129 kPa | 1475.7
313.14 K, 26171 kPa | 1475.9
313.14 K, 26230 kPa | 1476.2
313.14 K, 26265 kPa | 1476.5
313.14 K, 26307 kPa | 1476.7
313.14 K, 26355 kPa | 1476.6
313.14 K, 26384 kPa | 1476.9
313.14 K, 26431 kPa | 1477
313.14 K, 26467 kPa | 1477.1
313.14 K, 26516 kPa | 1477.3
313.14 K, 26563 kPa | 1477.5
313.14 K, 26598 kPa | 1477.7
313.14 K, 26634 kPa | 1477.8
313.14 K, 26676 kPa | 1477.9
313.14 K, 26712 kPa | 1478
313.14 K, 26759 kPa | 1478.2
313.14 K, 26806 kPa | 1478.3
313.14 K, 26855 kPa | 1478.6
313.14 K, 26891 kPa | 1478.6
313.14 K, 26928 kPa | 1478.9
313.14 K, 26976 kPa | 1479
313.14 K, 27297 kPa | 1480.2
313.14 K, 27651 kPa | 1481.6
313.14 K, 27676 kPa | 1481.7
313.14 K, 27719 kPa | 1481.9
313.14 K, 27749 kPa | 1482
313.14 K, 27835 kPa | 1482.4
313.14 K, 27864 kPa | 1482.4
313.14 K, 28790 kPa | 1485.8
313.14 K, 28820 kPa | 1485.9
313.14 K, 28855 kPa | 1486.1
313.14 K, 28889 kPa | 1486.1
313.14 K, 28918 kPa | 1486.2
313.14 K, 28953 kPa | 1486.3
313.14 K, 28993 kPa | 1486.5
313.14 K, 29033 kPa | 1486.8
313.14 K, 29059 kPa | 1486.6
313.14 K, 29641 kPa | 1489
313.14 K, 29682 kPa | 1489.1
313.14 K, 29711 kPa | 1489.2
313.14 K, 29757 kPa | 1489.4
313.14 K, 29798 kPa | 1489.5
313.14 K, 29841 kPa | 1489.5
313.14 K, 29883 kPa | 1489.8
313.14 K, 29915 kPa | 1489.9
313.14 K, 29950 kPa | 1489.9
313.14 K, 29980 kPa | 1490.2
313.14 K, 30015 kPa | 1490.2
313.14 K, 30045 kPa | 1490.2
313.14 K, 30081 kPa | 1490.3
313.14 K, 30117 kPa | 1490.6
313.14 K, 30159 kPa | 1490.6
313.14 K, 30185 kPa | 1490.7
313.14 K, 30217 kPa | 1491
313.14 K, 30259 kPa | 1491.1
313.14 K, 30299 kPa | 1491.3
313.14 K, 30342 kPa | 1491.3
313.14 K, 30376 kPa | 1491.5
313.14 K, 30424 kPa | 1491.8
313.14 K, 30466 kPa | 1491.8
313.14 K, 30511 kPa | 1492
313.14 K, 30547 kPa | 1492
313.14 K, 30593 kPa | 1492.2
313.14 K, 30624 kPa | 1492.2
313.14 K, 30664 kPa | 1492.6
313.14 K, 30690 kPa | 1492.5
313.14 K, 30727 kPa | 1492.7
313.14 K, 30775 kPa | 1492.8
313.14 K, 30815 kPa | 1493
313.14 K, 30847 kPa | 1493.3
313.14 K, 30889 kPa | 1493.2
313.14 K, 30921 kPa | 1493.5
313.14 K, 30962 kPa | 1493.5
